Measurements: patent US12163158B2, “Organoid and method for producing same” (priority 2017, dated 2024)

Tests used:
Format in all cases: cell-based
[1] = system: mouse ES cell-derived heart organoid; assay: Ca2+ measurement of drug responsiveness in heart organoids; settings: 1 μM isoproterenol vs absence (control); 15-second recording; Fluo8 fluorescence; FIG. 40
Protocol: The heart organoids were washed twice with PBS and immersed in a 4 μM green fluorescent intracellular calcium indicator Fluo8 AM (acetoxymethyl) or Fluo8 AM/F127, freshly diluted with Tyrode's solution containing 1.8 mM Ca^2+, at 37° C. for 15 to 30 minutes. Thereafter, the heart organoids were washed twice with PBS, treated with 200 μL of Tyrode's solution, mounted, and observed with a fluorescence microscope (manufactured by Keyence Corporation). Specifically, first, Ca^2+ measurement was performed by the method described above (Ca Measurement) in the presence and absence (control) of 1 μM isoproterenol, which is an adrenergic […] agonist. A 15-second recording (movie) was taken, and image analysis was performed to detect the change in the intensity (Y-axis) of the fluorescent signal with time (X-axis).

[2] = system: mouse ES cell-derived embryoid bodies; assay: Heart organoid formation from embryoid bodies on LN/ET gel in the presence of FGF protein; settings: bFGF instead of FGF4; not shown in the figure
Protocol: For the purpose of attempting to mimic such a process of developing a heart in the living body, as shown in the lower stage of FIG. 1, first, mouse ES cells were cultured in a low-binding U-bottom 96-well plate in the absence of leukemia inhibitory factor (LIP) to obtain complete embryoid bodies (EB) (1000 to 5000 cells/embryoid body). […]

[3] = system: human iPS cells (253G1) embryoid bodies; assay: Formation of heart and lung organoids from human iPS cells under conditions I to IV; settings: embryoid bodies on gelated LN/ET complex; at collection (day 13 of culture or later); FIG. 49

Question: With `CC(C)NCC(O)c1ccc(O)c(O)c1` (stereo not drawn) [isoproterenol] as the molecule, how does the “change of Ca signal cycle in heart organoids” value [1] read?
Answer: Its value is “shorten the Ca signal cycle (tachycardia-like)”.

Question: “bFGF: fibroblast growth factor 2 (FGF2, bFGF)” was tested. Which “production of beating heart organoid” value [2] did it give?
Answer: The value was “successfully produced the same beating heart organoid”.

B1: condition II: additive to medium: FGF4 (30 ng/mL) (protein, UniProt P08620 31-206, looked up)
Fibroblast growth factor 4: APTAPNGTLEAELERRWESLVALSLARLPVAAQPKEAAVQSGAGDYLLGIKRLRRLYCNVGIGFHLQALPDGRIGGAHADTRDSLLELSPVERGVVSIFGVASRFFVAMSSKGKLYGSPFFTDECTFKEILLPNNYNAYESYKYPGMFIALSKNGKTKKGNRVSPTMKVTHFLPRL
Question: B1 was tested. Which “efficiency of producing heart organoids and lung organoids (combined heart and lung, separated heart and lung)” value [3] did it give?
Answer: The value was 62.5%.
